Source: patent US11833139B2 (priority 2019, dated 2023)
≈ marks a conversion by molar mass, not a printed value. Read-outs that look alike come from different tables or passages of the source.

What was measured:
[1] = system: A. baumannii HUMC1; assay: MIC by broth microdilution (CLSI), carbapenem-resistant clinical isolate HUMC1; format: cell-based, Acinetobacter baumannii; conditions: Acinetobacter baumannii, read-out: MIC
Description: (§1) Two A. baumannii isolates were used in this example: HUMC1 (BV374) (Spellberg/Luna Laboratory, University of Southern California, Los Angeles, Calif.) and UNT091-1 (BV378) (UNT Health Science Center, Fort Worth, Tex.). The HUMC1 isolate is a hyper-virulent drug-resistant clinical strain isolated from a blood-stream infection. […] The isolates were stored at −80° C. as 20% (v/v) glycerol cultures.
(§2) MICs were determined by the broth microdilution method following the guidelines of the Clinical Laboratory Standards Institute (CLSI) using RPMI supplemented with […] cationic-adjusted Muller Hinton broth (CA-MHB) as assay medium. To prepare the bacterial inocula, 3-5 colonies of bacterial strains from over-night growth on ChromAgar orientation plates (CHROMagar Cat. No. RT412) were suspended in 5 mL saline. The turbidity of the bacterial suspension was adjusted to 0.5 McFarland units (equal to an optical density at 610 nm (OD610) to 0.08-0.1). This suspension was diluted 200-fold in RPMI supplemented with 10% (v/v) FCS to reach a final concentration of […] colony forming units (CFU)/mL and was used to inoculate the microtiter plates.
(§3) Serial 2-fold dilutions of the antibiotics were prepared in a separate 96-well plate polypropylene U-bottom plate (Ratiolab Cat. No. 6018111) in RPMI supplemented with 10% (v/v) FCS at 10-fold of the final test concentrations and 10 μl of the dilutions were transferred to new 96-well polystyrene U-bottom microtiter plates with a parafilm plate cover.
(§4) The plates were then inoculated with 90 μL per well of the prepared bacterial suspensions in using a multichannel pipette (Eppendorf), with the first column containing 4 wells each for growth control (no antibiotic). […] The MIC was recorded as the lowest concentration of the compound that inhibited bacterial growth by visual inspection. MICs were determined at least in duplicates and in the case of variations, the higher values are provided.

[2] = system: A. baumannii UNT091; assay: MIC by broth microdilution (CLSI), carbapenem-resistant clinical isolate UNT091; format: cell-based, Acinetobacter baumannii; conditions: Acinetobacter baumannii, read-out: MIC
Description: as §1, §2, §3, §4

[3] = system: A. baumannii ATCC 17978; assay: MIC in fhuE expressing A. baumannii strains (plasmid-based expression, IPTG inducible); format: cell-based, Acinetobacter baumannii; conditions: for MIC: Acinetobacter baumannii
From the text: The fhuE gene (AWC45_RS10145) from the A. baumannii HUMC1 strain was cloned into the E. coli/A. baumannii shuttle plasmid pVT111 under the control of the isopropyl-beta-D-1-thiogalactopyranoside (IPTG) inducible promoter Ptrc-lacO. The resulting plasmid and the original pVT111 plasmid (control) were transferred to the A. baumannii strain ATCC-17978 by conjugation and transconjugants were selected on LB agar plates containing kanamycin.

[4] = system: A. baumannii ACC00445
Description: (§5) A. baumannii clinical isolates were stored at −80° C. as 20% (v/v) in glycerol stock cultures.
(§6) Selective agar plates were prepared using RPMI powder (Sigma R7755) dissolved at 10.3 g/L with agar at 15 g/L and boiled until complete agar melting. After cooling the media to 45° C., 0.3 g/L L-glutamine (Sigma G7513), 25 mM HEPES (Gibco 15630-056) and 10% (v/v) FCS (Gibco 10500-064) were added.
(§7) The culture inocula were prepared from a bacterial NaCl suspension at 0.5 McFarland diluted 200-times in 100 mL of RPMI (Sigma R8758)+10% FCS in 500 mL flasks to reach ˜5×10^5 CFU/mL. The flasks were incubated for 24 h at 37° C. under shaking at 220 rpm. After incubation, the cells were pelleted by centrifugation (10 min, 7000 rpm at RT) and re-suspended in 1 mL PBS. […] After incubation at 35° C. for 24 h colonies were counted, and the frequency of resistance was calculated as the ratio between the number of colonies growing on plates with antibiotic and the total colony count of the inocula.

[5] = system: A. baumannii HUMC-1; conditions: HUMC-1, rifabutin 0.1 mg/L
Description: as §5, §6, §7

[6] = system: A. baumannii LAC-4
Description: as §5, §6, §7

[7] = system: A. baumannii UNT091
Description: as §5, §6, §7

[8] = system: A. baumannii UNT238
Description: as §5, §6, §7

[9] = system: five clinical A. baumannii strains; conditions: rifabutin concentrations of ≥2 mg/L
Description: as §5, §6, §7

[10] = system: A. baumannii ACC00445; assay: Neutropenic sepsis mouse model (CD-1 mice, IP infection); format: in vivo; conditions: IV at 1 h and 5 h post-infection, 1 mg/kg
From the text: The CD-1 mice were IP infected with A. baumannii ACC00445 strain in the presence of […].

[11] = system: A. baumannii UNT091; assay: Neutropenic lung infection mouse model (CD-1 mice, intranasal infection); format: in vivo; conditions: UNT091, IV at 2 h post-infection, 24 hours of treatment, doses of <0.5 mg/kg
Description: (§8) After 24 hours of treatment the mice were sacrificed and colony forming units in the lungs were measured.

[12] = system: A. baumannii UNT093; assay: as above; format: in vivo; conditions: UNT093, IV at 2 h post-infection, 24 hours of treatment, doses of <0.5 mg/kg
Description: as §8

[13] = system: A. baumannii; assay: Dose fractionation in a neutropenic mouse model of infection; format: in vivo; conditions: IV q24 h, q12 h or q6 h
From the text: FIG. 5 summarizes the results of dose fractionation experiments in a neutropenic mouse model of infection.

[14] = system: A. baumannii; assay: Target exposures (PK/PD index, sigmoid Emax model) for 1-log reduction in lung CFUs; format: in vivo
[15] = system: A. baumannii UNT091-1 ΔfhuE mutant; assay: Neutropenic lung infection in CD-1 mice, wildtype versus ΔfhuE mutant; format: in vivo; conditions: mice infected with UNT091-1::ΔfhuE, single IV dose at 2 h, burden at 26 hours
Description: FIG. 6 is a graph showing CFU per lung pair in mice inoculated with A. baumannii strains. Neutropenic, female CD-1 mice (5 per group) were inoculated intranasally (t=0 hr) with equivalent titers (6.90 and 6.93 log10 CFU) of A. baumannii UNT091-1 wildtype and A. baumannii UNT091-1 ΔfhuE mutant. The treatment (single IV dose) was administered at 2-hour post-infection and bacterial burden was reported at 26 hours by determining CFU/lung. Furthermore, the effect of RBT was blunted in mice infected with the UNT091-1::ΔfhuE strain supporting the role of fhuE as mediating RBT sensitivity both in vitro and in vivo.

[16] = system: panel of 293 CRAB strains (A. baumannii); assay: MIC by agar dilution on Muller Hinton Agar, panel of 293 CRAB strains; format: cell-based
Description: The strain panel contained isolates with 10% MDR (n=29), 86% XDR (n=253) and 4% (n=11) PDR phenotypes. Isolates were collected mainly from patients with pneumonia (59%), bloodstream infections (28%), and skin and soft tissue infections (11%) and categorized according to CLSI breakpoints as XDR when […] the antimicrobial classes described by Magiorakos et al. 2011. […] Comparator antibiotics were tested at CLSI standard conditions.

[17] = system: A. baumannii; assay: Liquid MIC determination using RPMI supplemented with FCS, clinical panel; format: cell-based; conditions: Acinetobacter baumannii
From the text: All isolates were resistant to carbapenems.

[18] = system: A. baumannii ATCC-17978 expressing FhuE V38P; assay: Complementation assay, plasmid mediated expression of FhuE variants in CA-MHB; format: cell-based; conditions: ATCC-17978 host, 1 mM IPTG
From the text: See, Cadieux, N., Bradbeer, C. & Kadner, R. J. Sequence changes in the ton box region of BtuB affect its transport activities and interaction with TonB protein. J. Bacteriol. 182, 5954-5961 (2000); Funahashi, T. et al. Identification and characterization of an outer membrane receptor gene in Acinetobacter baumannii required for utilization of desferricoprogen, rhodotorulic acid, and desferrioxamine B as xenosiderophores. Biol. Pharm. Bull. 35, 753-760 (2012); the content of each of which is incorporated herein by reference.

[19] = Acinetobacter baumannii, iron-chelated nutrient rich MHA (0.1 mM PIH), agar dilution

`CO[C@H]1/C=C/O[C@@]2(C)Oc3c(C)c(O)c4c(c3C2=O)C2=NC3(CCN(CC(C)C)CC3)NC2=C(NC(=O)/C(C)=C\C=C\[C@H](C)[C@H](O)[C@@H](C)[C@@H](O)[C@@H](C)[C@H](OC(C)=O)[C@@H]1C)C4=O` [rifabutin] was tested, and the MIC ([1]; HUMC1, HUMC1, RPMI plus 10% FCS (Table 1)) was 0.002 µg/mL, the MIC ([1]; HUMC1, HUMC1 parental strain, RPMI + 10% FCS (Table 2)) was 0.002 µg/mL and the MIC ([2]; UNT091, UNT091, CA-MHB (Table 1)) was 8 µg/mL (≈ 9.44 µM). For the same compound, the MIC ([2]; UNT091, UNT091, RPMI plus 10% FCS (Table 1)) was 0.002 µg/mL, the MIC ([2]; UNT091, UNT091 parental strain, RPMI + 10% FCS (Table 2)) was 0.002 µg/mL and the MIC ([3]; ATCC17978, read-out: rifabutin MIC, FhuE expressing plasmid, CA-MHB 1 mM IPTG) was 0.002 µg/mL (≈ 0.00236 µM). The MIC ([3]; ATCC17978, read-out: rifabutin MIC, FhuE expressing plasmid, CA-MHB no IPTG) was 0.016 µg/mL (≈ 0.0189 µM), the MIC ([3]; ATCC17978, read-out: rifabutin MIC, empty plasmid, CA-MHB 1 mM IPTG) was 2 µg/mL (≈ 2.36 µM) and the MIC ([3]; ATCC17978, read-out: rifabutin MIC, empty plasmid, CA-MHB no IPTG) was 1 µg/mL (≈ 1.18 µM). For the same compound, the MIC ([3]; ATCC17978, read-out: rifabutin MIC, no plasmid, CA-MHB 1 mM IPTG) was 4 µg/mL (≈ 4.72 µM), the MIC ([3]; ATCC17978, read-out: rifabutin MIC, no plasmid, CA-MHB no IPTG) was 4 µg/mL (≈ 4.72 µM) and the “MIC lower in fhuE expressing plasmid strain compared to empty plasmid strain” value ([3]; in the presence of IPTG) was 1000 fold. For the same compound, the “Frequency of Mutational Resistance (FoR)” value ([4]; ACC00445, rifabutin 0.02 mg/L) was 1.10E−05, the “Frequency of Mutational Resistance (FoR)” value ([4]; ACC00445, rifabutin 0.2 mg/L) was 8.10E−06 and the “Frequency of Mutational Resistance (FoR)” value ([4]; ACC00445, rifabutin 2 mg/L) was 2.40E−09. For the same compound, the “Frequency of Mutational Resistance (FoR)” value ([4]; ACC00445, rifabutin 20 mg/L) was 5.70E−09, the “Frequency of Mutational Resistance (FoR)” value [5] was 1.70E−05 and the “Frequency of Mutational Resistance (FoR)” value ([6]; LAC-4, rifabutin 0.2 mg/L) was 7.00E−05. For the same compound, the “Frequency of Mutational Resistance (FoR)” value ([6]; LAC-4, rifabutin 2 mg/L) was 5.00E−09, the “Frequency of Mutational Resistance (FoR)” value ([6]; LAC-4, rifabutin 20 mg/L) was 4.20E−09 and the “Frequency of Mutational Resistance (FoR)” value ([7]; UNT091, rifabutin 0.02 mg/L) was 7.80E−06. The “Frequency of Mutational Resistance (FoR)” value ([7]; UNT091, rifabutin 0.2 mg/L) was 6.40E−06, the “Frequency of Mutational Resistance (FoR)” value ([7]; UNT091, rifabutin 2 mg/L) was 7.10E−09 and the “Frequency of Mutational Resistance (FoR)” value ([7]; UNT091, rifabutin 20 mg/L) was 7.80E−09. The “Frequency of Mutational Resistance (FoR)” value ([8]; UNT238, rifabutin 0.2 mg/L) was 2.30E−05, the “Frequency of Mutational Resistance (FoR)” value ([8]; UNT238, rifabutin 2 mg/L) was 8.80E−10 and the “Frequency of Mutational Resistance (FoR)” value ([8]; UNT238, rifabutin 20 mg/L) was 1.60E−08. The “frequency of mutational resistance” value [9] was ~10^−9, the protection against sepsis [10] was “protects against sepsis” and the “effect on colony forming units in the lungs” value [11] was “potent effect”. The “effect on colony forming units in the lungs” value [12] was “potent effect”, the dose fractionation result [13] was “clear dose response relationship” and the “Target AUC required to treat” value ([14]; MIC 0.5 mg/L) was 5.74 mg·h/L. For the same compound, the “Target Cmax required to treat” value ([14]; MIC 0.5 mg/L) was 1.30 mg/L, the “Target AUC required to treat” value ([14]; MIC 1 mg/L) was 11.48 mg·h/L and the “Target Cmax required to treat” value ([14]; MIC 1 mg/L) was 2.59 mg/L. For the same compound, the “Target AUC required to treat” value ([14]; MIC 2 mg/L) was 22.96 mg·h/L, the “Target Cmax required to treat” value ([14]; MIC 2 mg/L) was 5.19 mg/L and the “effect on bacterial burden (CFU/lung)” value [15] was “blunted”. For the same compound, the MIC50 [16, 19] was 0.008 µg/mL (≈ 0.00944 µM), the MIC90 [16, 19] was 1 µg/mL (≈ 1.18 µM) and the activity ([16]; standard MHA) was “only marginal activity”. For the same compound, the MIC50 [17] was 0.004 µg/mL (≈ 0.00472 µM), the MIC90 [17] was 2 µg/mL (≈ 2.36 µM) and the “restoration of potent activity by FhuE V38P expression compared to wildtype FhuE” value [18] was “not able to restore rifabutin potent activity”.
